Results from patent US20090137499A1, “BENZYLPHENYL GLUCOPYRANOSIDE DERIVATIVE” (priority 2006, published 2009).

Molecular target: T1, human SGLT2 (Homo sapiens, UniProt P31639)
T1 construct: expressed in transfected cells
T1 sequence (P31639 1-672): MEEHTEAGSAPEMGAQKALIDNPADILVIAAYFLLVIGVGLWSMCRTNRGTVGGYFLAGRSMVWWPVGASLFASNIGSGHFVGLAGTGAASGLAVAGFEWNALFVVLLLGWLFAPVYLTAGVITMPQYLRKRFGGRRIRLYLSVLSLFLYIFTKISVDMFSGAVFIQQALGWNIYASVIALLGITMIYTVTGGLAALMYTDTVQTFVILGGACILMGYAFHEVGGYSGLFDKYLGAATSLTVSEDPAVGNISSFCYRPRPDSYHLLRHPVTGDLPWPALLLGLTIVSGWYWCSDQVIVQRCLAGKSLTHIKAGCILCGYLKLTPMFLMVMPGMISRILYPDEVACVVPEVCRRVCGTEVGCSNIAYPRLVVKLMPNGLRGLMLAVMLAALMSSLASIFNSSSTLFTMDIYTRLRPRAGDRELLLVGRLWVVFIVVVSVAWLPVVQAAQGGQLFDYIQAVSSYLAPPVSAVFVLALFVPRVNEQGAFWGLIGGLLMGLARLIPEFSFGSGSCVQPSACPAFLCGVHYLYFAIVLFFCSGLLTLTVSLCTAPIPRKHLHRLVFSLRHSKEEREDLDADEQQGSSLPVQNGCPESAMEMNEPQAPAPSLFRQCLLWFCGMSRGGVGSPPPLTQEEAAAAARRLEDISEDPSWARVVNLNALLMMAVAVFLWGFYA
Assay: Determination of SGLT2 inhibiting activity using human SGLT2 expressing cell ([14C]-α-methyl-D-glucopyranoside uptake)
Type: cell-based
Settings: HEK-SGLT2 cells, 1 mM [14C]-α-methyl-D-glucopyranoside, 37° C., 30 min
Procedure: Determination of SGLT2 Inhibiting Activity Using Human SGLT2 Expressing Cell
1) Preparation of Vector Expressing Human SGLT2 cDNA in Animal Cell
Amplification was performed by PCR using human SGLT2 cDNA clone (Origene: Clone Number, TC303267; GenBank accession number, NM 003041) as a template. The sense oligonucleotide primer for PCR was 5′-[…]-3′ (Primer 3: SEQ ID NO: 3 in the sequence listing),
and the antisense oligonucleotide primer was 5′-[…]-3′ (Primer 4: SEQ ID NO: 4 in the sequence listing). The PCR product was subjected to agarose electrophoresis, then a target DNA fragment was recovered from a single band corresponding to 2037 bases, digested with restriction enzymes HindIII and XhoI, and introduced into the HindIII/XhoI site of vector pCMV-Script (Stratagene) to obtain SGLT2 expressing plasmid pCMV-SGLT2. A HindIII/XhoI fragment was excised from pCMV-SGLT2 and introduced into the BamHI/XhoI site of pENTR1A (Gateway, Invitrogen) to prepare pENTR-SGLT2. Retrovirus vector pLPCX (Clontech) into which Gateway Vector Conversion System Cassette A (Invitrogen) was introduced was used as the destination plasmid to prepare SGLT2 expressing retrovirus vector pLPCX-SGLT2.
2) Establishment of Human SGLT2 Expressing Cell
The retrovirus pLPCX-SGLT2 obtained in 1) was transfected into integrin αvβ3 expressing HEK-293 cells, the cells were treated with antibiotic G418 (brand name, Geneticin: Invitrogen) and puromycin (Clontech) to obtain HEK-SGLT2 cells stably expressing the target vector having resistance. The stably expressing cells were cultured and maintained in DMEM medium containing […] G418, […] puromycin, 3 mM KGT-1075, and 10% FBS.
3) Determination of SGLT2 Inhibiting Activity
HEK-SGLT2 cells were suspended at a density of 10^6 cells/mL in DMEM medium containing 250 mg/mil G418, 1 mg/ml puromycin, and 10% FBS, and 100 μL was seeded in each well of a type 1 collagen-coated 96-well culture plate (Corning). On the following day, the medium was replaced with a sugar uptake buffer (10 mM HEPES [pH 7.5], 5 mM Tris-HCl [pH 7.5], 140 mM NaCl, 2 mM KCl, 1 mM CaCl2, 1 mM MgCl2), and the cells were cultured with 1 mM [^14C]-α-methyl-D-glucopyranoside (0.1 mCi) and a test compound at 37° C. for 30 min, and then washed 3 times with a washing buffer (10 mM HEPES (pH 7.5), 5 mM Tris-HCl (pH 7.5), 140 mM choline chloride, 2 mM KCl, 1 mM CaCl2, 1 mM MgCl2). 100 μL of liquid scintillation cocktail (brand name, Supermix: Perkin-Elmer) was added to each well of the 96-well plate and stirred for 10 min, and then radioactivity was determined with micro β (Perkin-Elmer), a type of liquid scintillation counter. The value obtained by deducting the radioactivity in the presence of an excess amount of an SGLT2 inhibiting compound as the background from each measured value was taken as the sugar uptake activity, the inhibition rate (%) was calculated from the control sugar uptake activity obtained without using a test compound and the sugar uptake activity obtained using a test compound having a predetermined concentration, and the concentrations of the test compound at which the sugar uptake activity was inhibited by 50% were assessed.

Row | IC50 | Compound
1 | 10 nM | COc1ccc(Cc2c(Cl)cc(CO)cc2O[C@@H]2O[C@](C)(CO)[C@@H](O)[C@H](O)[C@H]2O)cc1 [Example 55, 3-Chloro-5-hydroxymethyl-2-(4-methoxybenzyl)phenyl 5-C-methyl-β-D-glucopyranoside]
2 | 11 nM | COc1ccc(Cc2c(Cl)cc(CO)cc2O[C@@H]2O[C@H](CO)[C@@](C)(O)[C@H](O)[C@H]2O)cc1 [Example 56, 3-Chloro-5-hydroxymethyl-2-(4-methoxybenzyl)phenyl 4-C-methyl-β-D-glucopyranoside]
3 | 13 nM | COc1ccc(Cc2ccc(N)cc2O[C@@H]2O[C@H](CO)[C@@](C)(O)[C@H](O)[C@H]2O)cc1 [Example 64, 5-Amino-2-(4-methoxybenzyl)phenyl 4-C-methyl-β-D-glucopyranoside]
4 | 20 nM | COc1ccc(Cc2ccc(N)cc2O[C@@H]2O[C@H](CO)C[C@H](O)[C@H]2O)cc1 [Example 65, 5-Amino-2-(4-methoxybenzyl)phenyl 4-deoxy-β-D-glucopyranoside]
5 | 20 nM | COc1ccc(Cc2c(F)cc(CO)cc2O[C@@H]2O[C@H](CO)C[C@H](O)[C@H]2O)cc1 [Example 85, 3-Fluoro-5-hydroxymethyl-2-(4-methoxybenzyl)phenyl 4-deoxy-β-D-glucopyranoside]
6 | 19 nM | COc1ccc(Cc2c(Cl)cc(CO)cc2O[C@@H]2O[C@H](CO)C[C@H](O)[C@H]2O)cc1 [Example 86, 3-Chloro-5-hydroxymethyl-2-(4-methoxybenzyl)phenyl 4-deoxy-β-D-glucopyranoside]
7 | 272 nM | CCOc1ccc(Cc2ccc(COC(=O)CO)cc2O[C@@H]2O[C@H]([C@@H](C)O)[C@@H](O)[C@H](O)[C@H]2O)cc1 [Example 99, 5-Hydroxyacetyloxymethyl-2-(4-ethoxybenzyl)phenyl 7-deoxy-D-glycero-β-D-gluco-heptopyranoside]
